According to article PMC9786170, “The Pharmacological Potential of Novel Melittin Variants from the Honeybee and Solitary Bees against Inflammation and Cancer” (Toxins, 2022):
“Also recorded” adds a separate entry of the source.

Experiments:
RAW264.7 cells [1] = experiment: NO inhibition assay (LPS-stimulated, Griess); type: cell-based, murine; conditions: RAW264.7, peptide 30 min, then 100 ng/mL LPS 24 h, n = 3
Experimental: Figure 4 Influence of melittin derivates on inflammation-associated cell functions. (A,B) For the NO induction assay (A), RAW264.7 cells were treated with melittin peptides in the indicated concentrations for 24 h. For the NO inhibition assay (B), RAW264.7 cells were pretreated with melittin peptides in the indicated concentrations for 30 min and then stimulated with 100 ng/mL LPS for 24 h. NO was detected in the supernatant using the Griess method. […] THP-1 cell adhesion under static conditions. HUVECs were grown to confluence, preincubated with bee venoms for 30 min, and activated with TNF (10 ng/mL) for 24 h. For the leukocyte adhesion assay, untreated THP-1 cells were stained with CellTracker Green and were allowed to adhere to the treated HUVECs for 5 min. The adhesion of leukocytes onto Ecs was quantified by fluorescence measurements for all cell adhesion experiments. Data are expressed as means ± SEM, (A,B) n = 3, (C) n = 2. * p ≤ 0.05 vs. TNF (positive) control.
2 × 10^4 RAW264.7 macrophages/well were plated in a 96-well plate and cultured for 24 h at 37 °C. To investigate if the melittin peptides induce nitrogen oxide (NO) synthesis, the melittin peptides, control (DMSO), and positive control (100 ng/mL lipopolysaccharide (LPS)) were added. To evaluate the effect of melittin peptides on inhibiting NO synthesis, the cells were pre-incubated with peptides or control (DMSO) for 30 min before 100 ng/mL LPS were added. After 24 h supernatants were collected and stored at −80 °C.
NO was determined with the Griess method. Briefly, for the standard curve, different concentrations of sodium nitrite (0–50 µM) were prepared in the medium. A total of 80 µL cell supernatant or standard sample were added to a 96-well microplate and subsequently, 20 µL sulfanilamide solution (120 mg sulfanilamide in 30 mL 1 N hydrochloric acid) and 20 µL naphthylenediamine solution (180 mg N-(1-naphthyl)ethylenediamine dihydrochloride in 30 mL water) were added. After 15 min of incubation, the absorbance (540 nm) was measured with the EnSpire Plate Reader (PerkinElmer, Waltham, MA, USA). For the induction assay, the NO levels of the melittin peptides-treated samples were related to the DMSO-treated sample. For the inhibition assay, the NO levels of the melittin peptides-treated cells were correlated with the LPS-treated samples.

HEK293T cells [2] = experiment: Ca2+ induction assay (Fluo-8); type: cell-based, human; conditions: Fluo-8, 0.25, 2.5, 25 µg/mL, partly already at 2.5 µg/mL, n = 4
Experimental: (§1) Figure 2 Melittin derivates influence cellular Ca^2+ and IP1 levels. (A) For the Ca^2+ induction assay, Fluo-8 pretreated HEK293-T cells were incubated with melittin derivates in the indicated concentrations and the fluorescence was detected. (B) For the Ca^2+ inhibition assay, Fluo-8 pretreated HEK293-T cells were incubated with peptides in the indicated concentrations for 30 min, stimulated with 5 µM ionomycin, and the fluorescence was detected. (C) IP3 has a short lifetime and is rapidly degraded to IP1; therefore, IP1 was determined. For the IP1/IP3 induction assay (left panel), HEK293T cells were incubated with melittin peptides in the indicated concentration for 2 h, a detection reagent was added, and the fluorescence resonance energy transfer signal was detected. For the IP1/IP3 inhibition assay (right panel), HEK293T cells were incubated with melittin peptides in the indicated concentration for 30 min and stimulated with 20 µM ionomycin for 1.5 h. After the addition of the detection reagent, the fluorescence resonance energy transfer signal was detected. Data are expressed as mean ± SEM. (A, B, C (left)) n = 4, (C (right)) n = 3. * p ≤ 0.05 versus control.
(§2) For analysis, 5 × 10^4 HEK293 cells or 2 × 10^4 MDA-MB-231 cells were seeded in a 96-well poly-D-lysine plate, incubated at 37 °C for 24 h, and treated with 4 µM Fluo-8-AM in HBSS for 1 h at 37 °C. After 1 h, the Fluo-8/HBSS was replaced by 100 µL HBSS. Five images per second were taken using an ImageXpress Micro Confocal High Content Imaging System (Molecular Device, San Jose, CA, USA). Melittin peptides (0.25, 2.5, and 25 µg/mL), DMSO (negative control), or 5 µM ionomycin (Sigma Aldrich; Taufkirchen, Germany) (positive control) were added to the cells. For the next 20 s, an image was obtained every second. For the inhibition assay, the peptide-treated samples (30 min) were treated with 5 µM ionomycin and for the next 20 s, an image was obtained every second. The data were analyzed with the MetaXpress Software Version 6 (Molecular Devices, San Jose, CA, USA). A threshold of fluorescence intensity was defined using cells before treatment, and all cells with a fluorescence signal above the threshold level were counted. For the induction assay, the number of cells above the threshold in the toxin-treated samples were related to the cells in the DMSO-treated sample. For the inhibition assay, the number of cells above the threshold in the melittin-treated samples were related to the cells in the ionomycin-treated sample.

RAW264.7 cells [3] = experiment: Cell viability assay (WST-8/Orangu formazan) in RAW264.7 cells; type: cell-based, murine
Experimental: Figure 1 Toxicity characterization of cells treated with melittin peptides. (A,B) For the viability assay, RAW264.7 (A) or HEK293T (B) cells were treated with bee venom compounds in the indicated concentrations for 24 h. Cells were incubated with WST-8 and the formed formazan was detected by absorbance measurements. (C) For the proliferation assay, HMEC-1 cells were grown in low density and treated after 24 h with the indicated peptide (25 µg/mL) for 72 h. Cells were stained with crystal violet solution. The amount of DNA-bound crystal violet was detected by absorbance measurements. (D) The number of sub-diploidic cells was determined by staining with propidium iodide (PI) and quantified to assess apoptosis of HUVECs. Data are expressed as mean ± SEM. (A) n = 3, (B) n = 4, (C) n = 2–3, (D) n = 2. * p ≤ 0.05 versus control.
For assessing the cytotoxicity of all peptides, various cell types and assays were utilized. To determine the cell viability of HEK293T and RAW246.7 cells, the Orangu^TM assay (Cell Guidance Systems Ltd., Cambridge, UK) was used, as previously described. 2 × 10^5 HEK293T or 2 × 10^5 RAW246.7 were seeded in 96-well plates. Different concentrations (0, 0.25, 2.5, 25 µg/mL) of melittin peptides or vehicle (DMSO) were added. After 24 h of incubation at 37 °C and 5% CO2, 10 µL of Orangu^TM cell counting solution was added and incubated for 60 min. After incubation, absorbance was measured at a wavelength of 450 nm with a reference at 650 nm at an EnSpire 2300 Multimode Plate Reader (Perkin Elmer, Lübeck, Germany). To calculate cell viability, the absorbance of vehicle-treated cells was set to 100%, and the melittin derivates-treated samples were correlated to them.

HEK293T cells [4] = experiment: Ca2+ inhibition assay (ionomycin-stimulated, Fluo-8); type: cell-based, human; conditions: Fluo-8, peptide 30 min, then 5 µM ionomycin, n = 4
Experimental: as §1, §2

Row | Substance | inhibition of LPS-induced NO synthesis (RAW264.7 cells [1]) | induction of Ca2+ release (HEK293T cells [2]) | reduction of cell viability (RAW264.7 cells [3]; RAW264.7, 25 µg/mL, 24 h, WST-8 formazan absorbance, vehicle = 100%, n = 3) | cytotoxicity in RAW264.7 (RAW264.7 cells [3]; RAW264.7 macrophage, Discussion) | inhibition of ionomycin-induced Ca2+ release (HEK293T cells [4])
1 | osmin | prevented LPS-induced NO synthesis in a concentration-dependent manner | induced a significant release of Ca^2+; also recorded: induce Ca^2+ release |  |  | 
2 | xylopin [Xac3] | prevented LPS-induced NO synthesis in a concentration-dependent manner; also recorded: inhibit NO synthesis | induced a significant release of Ca^2+ | more than 90% | induced significant cytotoxicity | 
3 | codesane | prevented LPS-induced NO synthesis in a concentration-dependent manner | without inducing Ca^2+ release |  |  | inhibited the ionomycin-induced Ca^2+ release; also recorded: inhibit Ca^2+ levels
4 | halictin [Hal2] |  | without inducing Ca^2+ release |  |  | inhibited the ionomycin-induced Ca^2+ release
5 | halictin |  |  |  |  | inhibit Ca^2+ levels
6 | xylopin [Xac1] |  |  |  |  | inhibit Ca^2+ levels
7 | melectin | prevented LPS-induced NO synthesis in a concentration-dependent manner | induced a significant release of Ca^2+; also recorded: induce Ca^2+ release |  |  | 
